# Data from publication PMC4850295, “Using a Genetically Encoded Sensor to Identify Inhibitors of Toxoplasma gondii Ca^2+ Signaling” (The Journal of Biological Chemistry, 2016).
# Where “and” joins values, the source holds several entries; their conditions need not be identical. Identical values can stand only once.
# Test system: T1, GCaMP5-expressing T. gondii
# T1 construct: whole extracellular parasites expressing GCaMP5 Ca2+ sensor
# Design: species or system GCaMP5-expressing Toxoplasma gondii, extracellular; GCaMP5 fluorescence (cytosolic Ca2+) after 100 uM zaprinast in compound-pretreated extracellular parasites, background-subtracted, relative to zaprinast alone
# Conditions: 100 uM zaprinast stimulation, 10 min pretreatment, mean of two replicates, 0.23 h, 10 µM
# How it was run: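 Read-out is GCaMP5 calcium fluorescence (ex 485/em 525 nm) taken 4 min after 100 μM zaprinast at 37 °C, following 10 min compound pretreatment at 10 μM in duplicate biological replicates. Values are basal-subtracted fold change versus zaprinast-only controls; parasites held extracellular in Ringer's solution.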
row,SMILES,fold change in fluorescence relative to zaprinast alone
1,COC(=O)Nc1nc2cc(Oc3cccc(NC(=O)Nc4cc(C(F)(F)F)ccc4F)c3)ccc2[nH]1 [GW659386A],1.116 and 1.187

# Same assay, conditions: 100 uM zaprinast stimulation; 10 min pretreatment; mean of two replicates; 0.23 h
row,SMILES,fold change in fluorescence relative to zaprinast alone
1,Cc1ccc(Nc2ccnc(Nc3cccc(C(N)=O)c3)n2)cc1O [GW575808A],1.342
2,CS(=O)(=O)CCNCc1ccc(-c2ccc3ncnc(Nc4ccc(OCc5cccc(F)c5)c(C(F)(F)F)c4)c3c2)o1 [GW576484X],0.5624
3,[O-][S+]1CCN(Cc2ccc(-c3ccc4ncnc(Nc5ccc(OCc6ccccc6)c(F)c5)c4c3)o2)CC1 [GW576924A],0.1384
4,COc1ccccc1Nc1ncc(-c2ccccc2)o1 [GW577921A],0.9668
5,CN1CCN(Cc2cccc(-c3ccc4c(Nc5ccc(Oc6ccccc6)cc5)ccnc4c3)c2)CC1 [GW578342X],1.603
6,COc1cc(/C=N/Nc2ncnc3[nH]ncc23)ccc1O [GW578748X],0.8277
7,Cc1ccc(Nc2ccnc(Nc3ccc4c(c3)CS(=O)(=O)C4)n2)cc1O [GW579362A],1.38
8,CS(=O)(=O)CCNCc1ccc(-c2ccc3ncnc(Nc4ccc(OCc5ccccc5)c(Br)c4)c3c2)o1 [GW580496A],1.191
9,CCS(=O)(=O)c1ccc(OC)c(Nc2ncc(-c3cccc(OC)c3)o2)c1 [GW580509X],1.14
10,NC(=O)c1ccc2c(-c3ccnc(NCCCO)n3)c(-c3ccc(F)cc3)nn2c1 [GW581744X],0.8342
11,Cc1ccc(Nc2ccnc(Nc3ccc(C)c(F)c3)n2)cc1O [GW582868A],1.057
12,[O-][S+]1CCN(Cc2ccc(-c3ccc4ncnc(Nc5ccc(OCc6ccccc6)c(Cl)c5)c4c3)o2)CC1 [GW583373A],0.2727
13,NS(=O)(=O)c1ccc(NC=C2C(=O)Nc3ccc4ncsc4c32)cc1 [GW589933X],1.196
14,COC(=O)Nc1nc2ccc(Oc3ccc(NC(=O)Nc4cccc(Cl)c4)cc3)cc2[nH]1 [GW589961A],1.185
15,CCS(=O)(=O)c1ccc(OC)c(Nc2ncc(-c3ccc(F)cc3)o2)c1 [GW591947A],1.203
16,COc1ccc(NC(=O)c2ccc(-c3cc(-c4nnc(C)o4)ccc3C)cc2)cc1 [GW595885X],1.221
17,FC(F)(F)c1ccc(-c2cc(-c3cn[nH]c3-c3ccccn3)ccn2)cc1 [GW599550X],1.459
18,Cc1nnc(-c2ccc(C)c(-c3ccc(C(=O)Nc4cccc(C#N)c4)cc3)c2)o1 [GW607117X],1.107
19,Cc1nnc(-c2ccc(C)c(-c3ccc(C(=O)O)cc3)c2)o1 [GW608005X],1.249
20,COc1cc(Nc2nccc(Nc3ccc4c(C)n[nH]c4c3)n2)cc(OC)c1OC [GW612286X],0.875
21,O=S(=O)(CCOCc1ccc(-c2ccc3ncnc(Nc4ccc(OCc5cccc(F)c5)c(Cl)c4)c3c2)o1)c1ccccc1 [GW615311X],1.258
22,CS(=O)(=O)CCN(CC#N)Cc1ccc(-c2ccc3ncnc(Nc4ccc(OCc5cccc(F)c5)c(Cl)c4)c3c2)o1 [GW616030X],1.169

row,SMILES,fold change in fluorescence relative to zaprinast alone
1,CCS(=O)(=O)c1ccc(OC)c(Nc2ncc(-c3cccc(C(C)=O)c3)o2)c1 [GW621431X],1.216
2,CN1CCN(CCCNc2nccc(-c3c(-c4ccc(F)cc4)nn4cc(C(F)(F)F)ccc34)n2)CC1 [GW621581X],0.8628
3,CCCN(CCS(C)(=O)=O)Cc1ccc(-c2ccc3ncnc(Nc4ccc(OCc5cccc(F)c5)c(Cl)c4)c3c2)o1 [GW621823A],0.6108
4,CN1CCN(CCCNc2nccc(-c3c(-c4ccc(F)cc4)nn4cc(C(N)=O)ccc34)n2)CC1 [GW622475X],0.5684
5,COc1cc(Nc2ncc(-c3ccccc3)o2)cc(OC)c1OC [GW627512B],0.9208
6,OCCCNc1nccc(-c2c(-c3cccc(C(F)(F)F)c3)nn3cc(C(F)(F)F)ccc23)n1 [GW630813X],1.109
7,Cc1cccc(Nc2ncc(-c3ccccc3)o2)c1 [GW632046X],1.202
8,COc1ccc(COc2ccc(Cc3cnc(N)nc3N)cc2OC)cc1 [GW632580X],1.155
9,O=S(=O)(CCNCc1ccc(-c2ccc3ncnc(Nc4ccc(OCc5cccc(F)c5)c(Cl)c4)c3c2)o1)c1ccccc1 [GW633459A],1.016
10,CC(C)S(=O)(=O)N1CCN(Cc2ccc3c(c2)nc(NC(=O)c2ccsc2)n3C[C@H](O)c2ccccc2)CC1 [GW635815X],1.196
11,N#CCc1ccc(Nc2nccc(Nc3ccc(Oc4ccccc4)cc3)n2)cc1 [GW639905A],1.192
12,COc1ccc(-c2cc3c(N)ncnc3o2)cc1 [GW642138X],1.142
13,COc1cc(C=NNc2ncnc3c2cnn3Cc2ccccc2)ccc1O [GW643971X],1.09
14,Fc1cccc(COc2ccc(Nc3ncncc3C#Cc3ccccc3)cc2Cl)c1 [GW651576X],1.149
15,COC(=O)Nc1nc2ccc(Oc3ccc(NC(=O)Nc4cc(C(F)(F)F)ccc4F)cc3)cc2[nH]1 [GW654607A],1.325
16,NC(=O)c1cccc(Nc2nccc(Nc3ccc(Oc4c(Cl)cccc4Cl)c(Cl)c3)n2)c1 [GW659009A],1.248
17,Nc1ccc(C#Cc2cncnc2Nc2ccc(OCc3cccc(F)c3)c(Cl)c2)cc1 [GW659893X],0.972
18,O=C(NCCCN1CCOCC1)c1cccc(Nc2nccc(Nc3ccc(Oc4ccccc4)cc3)n2)c1 [GW663929X],1.429
19,N#Cc1cnc2cc(-c3cnc(CNCCN4CCOCC4)s3)ccc2c1Nc1ccc(Oc2ccccc2)cc1 [GW664114X],1.528
20,CCc1cccc(NC(=O)Nc2ccc(Oc3ccc4nc(NC(=O)OC)[nH]c4c3)cc2)c1 [GW673715X],1.098
21,CCS(=O)(=O)c1ccc(OC)c(Nc2ncc(-c3cccc(-c4ccccc4F)c3)o2)c1 [GW678313X],1.071
22,Cc1cccc(-c2cc(-c3cn[nH]c3-c3ccccn3)ccn2)c1 [GW679395X],0.9312

row,SMILES,fold change in fluorescence relative to zaprinast alone
1,FC(F)(F)c1ccccc1-c1cc(-c2cn[nH]c2-c2ccccn2)ccn1 [GW679396X],0.8259
2,Cc1ccccc1-c1cc(-c2cn[nH]c2-c2ccccn2)ccn1 [GW680061X],0.8106
3,C#Cc1cccc(Nc2ncnc3ccc(OCCCCNCCS(C)(=O)=O)cc23)c1 [GW680191X],1.038
4,COc1cccc(-c2cc(-c3cn[nH]c3-c3ccccn3)ccn2)c1 [GW680338X],0.8974
5,COC(=O)Nc1nc2ccc(Oc3ccc(CC(=O)Nc4cc(C(F)(F)F)ccc4F)cc3)cc2[nH]1 [GW680903X],1.756
6,COC(=O)Nc1nc2ccc(S(=O)(=O)c3ccc(NC(=O)Nc4cc(C(F)(F)F)ccc4F)cc3)cc2[nH]1 [GW680908A],1.018
7,Fc1ccc(-c2cc(-c3c[nH]nc3-c3ccccn3)ccn2)cc1 [GW680975X],1.061
8,COC(=O)Nc1nc2ccc(Oc3ccc(NC(=O)Nc4cc(C(F)(F)F)ccc4F)cn3)cc2[nH]1 [GW681170A],1.637
9,Clc1ccc(-c2cc(-c3cn[nH]c3-c3ccccn3)ccn2)cc1 [GW681251X],1.448
10,Cc1[nH]nc2cc(Nc3ccnc(Nc4cccc(CN5CCOCC5)c4)n3)ccc12 [GW682569X],1.452
11,CC(C)c1ccc(-c2cc(-c3c[nH]nc3-c3ccccn3)ccn2)cc1 [GW682841X],1.973
12,O=C(Nc1ccc(Oc2ccc3[nH]c(NC(=O)c4ccco4)nc3c2)cc1)Nc1cc(C(F)(F)F)ccc1F [GW683134A],1.019
13,Nc1nc(-c2cccnc2)c(-c2ccnc3ccccc23)s1 [GW684083X],0.9409
14,CCCCc1nn2ncccc2c1-c1ccnc(NC2CC2)n1 [GW684374X],0.8894
15,Fc1cccc(COc2ccc(Nc3ncnc4sc(-c5cccs5)cc34)cc2Cl)c1 [GW684626B],0.9792
16,CCCCc1nn2ncccc2c1-c1ccnc(Nc2ccc(N3CCN(C)CC3)cc2)n1 [GW684941X],0.4893
17,COC(=O)Nc1nc2ccc(Oc3ccc(NC(=O)Nc4cc(C(F)(F)F)ccc4F)cc3)cc2n1C [GW692089A],1.505
18,N#Cc1ccc(-c2cc(-c3cn[nH]c3-c3ccccn3)ccn2)cc1 [GW693028X],1.123
19,Nc1nc(-c2ccccn2)c(-c2ccc3ncccc3n2)s1 [GW693481X],1.166
20,Nc1nc(-c2nccs2)c(-c2ccnc3ccccc23)s1 [GW693542X],0.8815
21,c1ccc(-c2[nH]ncc2Nc2ccnc3ccccc23)nc1 [GW694077X],1.237

# Same assay, conditions: 0.23 h, 10 µM
row,SMILES,% of control remaining
1,COc1cc(/C=N/Nc2ncnc3c2cnn3C(C)C)ccc1O [GW644007X],1.177
